Results on one molecule are retold here after ChEMBL document CHEMBL1142197, “The relationship between quinolone exposures and resistance amplification is characterized by an inverted U: a new paradigm for optimizing pharmacodynamics to counterselect resistance” (2007).

Holding throughout (format): functional
Test [1] concerns Staphylococcus aureus. Description: Antibacterial activity against ciprofloxacin-resistant methicillin-resistant Staphylococcus aureus at 48 hrs by broth macrodilution method.
Test [2] relates to Klebsiella pneumoniae. Description: Antibacterial activity against Klebsiella pneumoniae ATCC 13883 by broth macrodilution method at 48 hrs. Conditions: ATCC 13883, 48 h.
The test system of test [3] is Staphylococcus aureus. Description: Antibacterial activity against ciprofloxacin-susceptible methicillin-resistant Staphylococcus aureus at 48 hrs by broth macrodilution method.
In test [4] the test system is Staphylococcus aureus. Put plainly: Antibacterial activity against ciprofloxacin-susceptible methicillin-resistant Staphylococcus aureus by broth macrodilution method.
Test [5] relates to Staphylococcus aureus. Put plainly: Antibacterial activity against ciprofloxacin-resistant methicillin-resistant Staphylococcus aureus by broth macrodilution method.
The subject of test [6] is Klebsiella pneumoniae. Put plainly: Antibacterial activity against Klebsiella pneumoniae ATCC 13883 by broth macrodilution method.

Converted amounts (≈) assume the structure as drawn.

As for `C[C@H]1NCc2cc(-c3ccc4c(=O)c(C(=O)O)cn(C5CC5)c4c3OC(F)F)ccc21` [GARENOXACIN], the MIC in the test with Staphylococcus aureus [1] is 2.56 µg/mL (≈ 6 µM); with Klebsiella pneumoniae [2], 0.64 µg/mL (≈ 1.5 µM); in the test with Staphylococcus aureus [3], 0.08 µg/mL (≈ 0.188 µM); against Staphylococcus aureus [4], 0.04 µg/mL (≈ 0.0938 µM); with Staphylococcus aureus [5], 0.16 µg/mL (≈ 0.375 µM); against Klebsiella pneumoniae [6], 0.16 µg/mL (≈ 0.375 µM). In addition, the minimum bactericidal concentration (MBC) with Staphylococcus aureus [4], with Staphylococcus aureus [5] and against Klebsiella pneumoniae [6] was 0.32 µg/mL (≈ 0.75 µM) in each case.
